Reference: patent US20260206752A1, “MOLECULE HAVING PESTICIDAL UTILITY AND PROCESSES RELATED THERETO” (CORTEVA AGRISCIENCE LLC, priority 2022, published 2026)

How the values were obtained:
Meloidogyne incognita [1] = assay: Root Knot Nematode (RKN) test on cucumber seedlings in pots, Galling Index converted to % control, EC by probit analysis; format: in vivo; conditions: RKN EC50
Experimental: (§1) We conducted an experiment to evaluate comparative bioactivity of S1, R1, and B1 against the root knot nematode (RKN), Meloidogyne incognita. Each of S1, R1, and B1 were tested at six rates: 125, 62.5, 31.25, 15.6, 7.8, 3.9, and 2 ppm. Cucumber seeds (Cucumis sativus) were planted in a sandy loam soil in 3-inch pots. After 6 days of germination, the seedlings were treated with the test compounds dissolved in 5% acetone in water. The treated plants were inoculated with 4,000 second stage juveniles (J2s) of M. incognita. Each experimental unit was replicated three times. The inoculated plants were kept in a Greenhouse for 14 days (about 27° C.) before evaluating the amount of root damage (galls) called Galling Index (GI) based on a scale of 0-10; where 0=no galls (100% control), and 10=maximum galls (no control). The GI was converted to % control using the formula (10−GI)×10; where GI=Gall Index. Effective concentration (EC) values based on the % control of the nematode by S1, R1 and B1 were calculated by probit analysis.

[2] = test system: Heterodera glycines second stage juveniles (J2); assay: Soybean Cyst Nematode (SCN) in-vitro mortality test; format: in vivo; conditions: SCN LC50
Experimental: We carried out an in-vitro experiment to compare activity of S1, R1, and B1 with each other against the soybean cyst nematode (SCN): Heterodera glycines second stage juveniles (J2). Each of S1, R1, and B1 were tested at six rates: 62.5, 15.6, 4, 1, 0.25, and 0 ppm (untreated control, UTC with three replications of each treatment. Equal volume of nematode suspension was added to an equal volume of compound dissolved in 0.5% DMSO (dimethyl sulfoxide) in water. The nematode plus compound was incubated at room temperature (about 25° C.) on a shaker at 95 revolutions per minutes (RPM). Aliquots of 0.5 milliliters (mL) of the nematode suspension were evaluated under a microscope for mortality after 48 hours of incubation. SCN J2s were counted, and the number of dead and active nematodes was used to calculate % SCN mortality which was used to generate lethal concentration (LC) values by probit analysis.

Pratylechus penetrans = assay: Root Lesion Nematode (RLN) in-vitro mortality test; format: in vivo; conditions: RLN LC50
Experimental: We carried out an in-vitro experiment to compare activity of S1, R1, and B1 with each other against the root lesion nematode (RLN), Pratylechus penetrans. Each of S1, R1, and B1 were tested at six rates: 62.5, 15.6, 4, 1, 0.25, and 0 ppm (UTC) with three replications of each treatment. Equal volume of nematode suspension was added to an equal volume of each of S1, R1, and B1 dissolved in 0.5% DMSO (dimethyl sulfoxide) in water in 25 mL vials. The treated nematode suspension was incubated at room temperature (about 25° C.) on a shaker (95 RPM). Aliquots of 1 mL of the nematode suspension was evaluated under a microscope for mortality after 48 hours. RLN were counted, and the number of dead and active nematodes was used to calculate % mortality from which lethal concentration (LC) values were generated.

[3] = test system: root knot nematode, soybean cyst nematode, root lesion nematode; assay: Average of Delta % over the RKN, SCN and RLN tests of Example One; format: in vivo
Experimental: as §1, with “The GI was converted to % control using the formula (10−GI)×10; where GI=Gall Index.” left out, “analysis. […]” for “analysis.”
We carried out an in-vitro experiment to compare activity of S1, R1, and B1 with each other against the root lesion nematode (RLN), Pratylechus penetrans. […] Aliquots of 1 mL of the nematode suspension was evaluated under a microscope for mortality after 48 hours. RLN were counted, and the number of dead and active nematodes was used to calculate % mortality from which lethal concentration (LC) values were generated.

Meloidogyne incognita [4] = assay: Root knot nematode comparative bioactivity test at 600 g ai/ha, drench on cucumber seedlings; format: in vivo; conditions: 14 days after inoculation, (10−GI)×10
Experimental: We carried out an experiment to evaluate comparative bioactivity of S1, C1, C2, C3, C4, and C5 against the root knot nematode, Meloidogyne incognita. Each compound was tested at 600 grams of active ingredient per hectare (g ai/ha) and was replicated three times. Cucumber seeds (Cucumis sativus) were planted in a sandy loam soil in 3-inch pots. After six (6) days of planting, the seedlings were treated with the test compounds dissolved in 5% acetone in water by drench application. The plants were inoculated with 4,000 second stage juveniles (J2s) of M. incognita. The inoculated plants were kept in a Greenhouse for 14 days (temperature 27° C.) before evaluating the amount of root damage (galls) called Galling Index (GI) based on a scale of 0-10; where 0=no galls (100% nematode control), and 10=maximum galls (no nematode control). The GI was converted to % nematode control using the formula ((10−GI)×10); where GI=Gall Index. The data were analyzed by Analysis of Variance using JMP (John's Macintosh Project) statistical software and the means were separated using Tukey's HSD (α=0.05).

M. incognita = assay: Residuality test in soil against root knot nematode; format: in vivo, Meloidogyne incognita; conditions: 1250 g ai/ha on bare soil, aged four weeks, then seedlings and 4,000 J2s, evaluated after 14 days
Experimental: A residuality test was conducted to compare the residual control or persistence of S1, R1, C1, C2, C3, C4, and C5 in soil. Each compound was applied to a bare sandy loam soil (without plant or nematode) in a 3-inch pot at 1250 g ai/ha. The treated soils were kept in a Greenhouse (temperature 27° C.) under regular irrigation for four weeks. At the end of the four weeks, six-day old cucumber (Cucumis sativus) seedlings were transplanted into the treated soil and inoculated with 4,000 second stage juveniles of M. incognita. Each treatment was replicated four times. The inoculated plants were kept in a Greenhouse for 14 days (temperature 27° C.) before evaluating the amount of root damage (galls) called Galling Index (GI) based on a scale of 0-10; where 0=no galls (100% nematode control), and 10=maximum galls (no nematode control). The GI were converted to % control using the formula ((10−GI)×10); where GI=Gall Index. The data were analyzed by Analysis of Variance using JMP (John's Macintosh Project) statistical software and the means were separated using Tukey's HSD (α=0.05).

SMILES | Delta % vs B1 (Meloidogyne incognita [1]) [%] | Delta % vs B1 [2] [%] | Delta % vs B1 (Pratylechus penetrans) [%] | Delta % on average, S1 versus B1 [3] [%] | Mean Percent Control (Meloidogyne incognita [4]) [%] | Mean Percent Control (M. incognita) [%]
CCC(CC)[C@H](C)NC(=O)c1ccoc1Cl [Molecule S1, (S)-2-chloro-N-(3-ethylpentan-2-yl)furan-3-carboxamide] | 240 | 1194 | 259 | 564 |  | 
C[C@H](NC(=O)c1ccoc1Cl)C(C)(C)C [Molecule C1] |  |  |  |  | 54 | 27.5
